Laboratory results published in paper PMC7047604 (Journal of medicinal chemistry, 2020).
Entries after “also recorded” stand apart in the source; their conditions may differ.

Legend:
human DOR [1] = target: T1, human DOR (Homo sapiens, UniProt P41143); format: binding
human KOR [2] = target: T2, human KOR (Homo sapiens, UniProt P41145); format: binding
male C57BL/6 mice = conditions: mouse, in vivo
human KOR [3] = target: T2, human KOR; format: biochemical
in vitro = conditions: mouse, microsomes, pH 7.4, metabolic half-life in MLM, abstract statement
human DOR [4] = target: T1, human DOR; format: biochemical
human MOR = human MOR (Homo sapiens, UniProt P35372); assay: biochemical; format: biochemical; conditions: for Emax at 10 µM: read-out: Efficacy (% Stimulation) MOR
human MOR, sequence (P35372 whole entry): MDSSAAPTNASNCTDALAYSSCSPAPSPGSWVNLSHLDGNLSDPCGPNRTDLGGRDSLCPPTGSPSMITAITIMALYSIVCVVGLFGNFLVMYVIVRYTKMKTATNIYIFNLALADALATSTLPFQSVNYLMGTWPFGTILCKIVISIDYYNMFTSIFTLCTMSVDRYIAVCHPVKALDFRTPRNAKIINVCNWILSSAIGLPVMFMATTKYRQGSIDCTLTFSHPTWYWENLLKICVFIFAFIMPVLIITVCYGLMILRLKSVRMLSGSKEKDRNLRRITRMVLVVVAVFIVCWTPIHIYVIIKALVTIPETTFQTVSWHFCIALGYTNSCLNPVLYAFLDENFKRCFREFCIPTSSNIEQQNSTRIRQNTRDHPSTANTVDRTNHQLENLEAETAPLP

T1 sequence (P41143 whole entry): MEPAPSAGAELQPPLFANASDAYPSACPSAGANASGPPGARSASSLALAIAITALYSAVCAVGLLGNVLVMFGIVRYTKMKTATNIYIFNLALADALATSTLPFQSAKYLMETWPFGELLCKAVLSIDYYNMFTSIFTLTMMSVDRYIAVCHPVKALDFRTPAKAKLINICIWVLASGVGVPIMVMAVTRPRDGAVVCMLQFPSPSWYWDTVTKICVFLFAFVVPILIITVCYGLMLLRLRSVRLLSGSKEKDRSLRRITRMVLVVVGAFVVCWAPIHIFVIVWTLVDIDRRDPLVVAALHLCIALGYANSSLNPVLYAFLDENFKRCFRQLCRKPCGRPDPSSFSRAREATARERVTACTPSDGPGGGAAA
T2 sequence (P41145 whole entry): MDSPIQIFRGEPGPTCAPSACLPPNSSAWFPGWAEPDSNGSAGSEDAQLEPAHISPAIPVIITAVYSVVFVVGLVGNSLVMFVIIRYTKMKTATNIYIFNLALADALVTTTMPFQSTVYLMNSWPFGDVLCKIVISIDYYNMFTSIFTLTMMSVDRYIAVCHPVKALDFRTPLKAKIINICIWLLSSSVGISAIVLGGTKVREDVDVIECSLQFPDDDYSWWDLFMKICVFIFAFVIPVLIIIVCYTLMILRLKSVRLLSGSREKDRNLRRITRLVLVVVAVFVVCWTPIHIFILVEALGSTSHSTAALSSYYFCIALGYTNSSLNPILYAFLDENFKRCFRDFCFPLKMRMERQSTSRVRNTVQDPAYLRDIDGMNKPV

Structure (SMILES)	Selectivity MOR:DOR:KOR, DOR term (Ki DOR / Ki MOR) (human DOR [1])	Selectivity MOR:DOR:KOR, KOR term (Ki KOR / Ki MOR) (human KOR [2])	antinociceptive activity in AASA (overall) (male C57BL/6 mice)	Efficacy (% Stimulation) KOR (human KOR [3])	Potency, EC50 KOR (human KOR [3])	antinociceptive activity in AASA at 1 mg/kg (male C57BL/6 mice)	half-life at 1 μM (in vitro) [h]	Efficacy (% Stimulation) DOR (human DOR [4])	Potency, EC50 DOR (human DOR [4])	MOR agonist character in words (human MOR)	Emax at 10 µM (human MOR) [%]	partial DOR agonist, potency in words (human DOR [4])	KOR binding affinity in words (human KOR [2])	Efficacy (% Stimulation) MOR (human MOR)	Potency, EC50 MOR (human MOR)
CCOc1ccc(CN2CCCC2)cc1CNC(=O)[C@@H](N)Cc1c(C)cc(O)cc1C.O=C(O)C(F)(F)F [Compound 13, (S)-1-((2-ethoxy-5-(pyrrolidin-1-ylmethyl)benzyl)amino)-3-(4-hydroxy-2,6-dimethylphenyl)-1-oxopropan-2-aminium trifluoroacetate]	1:3.0:29	1:3.0:29	inactive; also recorded: lacked antinociceptive activity												
CCOc1ccc(CN2CCCCC2)cc1CNC(=O)[C@@H](N)Cc1c(C)cc(O)cc1C.O=C(O)C(F)(F)F [Compound 14, (S)-1-((2-ethoxy-5-(piperidin-1-ylmethyl)benzyl)amino)-3-(4-hydroxy-2,6-dimethylphenyl)-1-oxopropan-2-aminium trifluoroacetate]	1:3.1:20	1:3.1:20		DNS	DNS	active antinociceptive agents	> 1								
CCOc1ccc(CN2CC3CC3C2)cc1CNC(=O)[C@@H](N)Cc1c(C)cc(O)cc1C.O=C(O)C(F)(F)F (stereo partly drawn) [Compound 15, (2S)-1-((5-((3-azabicyclo[3.1.0]hexan-3-yl)methyl)-2-ethoxybenzyl)amino)-3-(4-hydroxy-2,6-dimethylphenyl)-1-oxopropan-2-aminium trifluoroacetate]	1:2.6:13	1:2.6:13													
CCOc1ccc(CN2CCOCC2)cc1CNC(=O)[C@@H](N)Cc1c(C)cc(O)cc1C.O=C(O)C(F)(F)F [Compound 16, (S)-1-((2-ethoxy-5-(morpholinomethyl)benzyl)amino)-3-(4-hydroxy-2,6-dimethylphenyl)-1-oxopropan-2-aminium trifluoroacetate]	1:2.0:>49	1:2.0:>49		DNS	DNS			did not stimulate DOR and DNS	DNS						
CCOc1ccc(CN2Cc3ccccc3C2)cc1CNC(=O)[C@@H](N)Cc1c(C)cc(O)cc1C.O=C(O)C(F)(F)F [Compound 17, (S)-1-((2-ethoxy-5-(isoindolin-2-ylmethyl)benzyl)amino)-3-(4-hydroxy-2,6-dimethylphenyl)-1-oxopropan-2-aminium trifluoroacetate]				DNS	DNS	active antinociceptive agents		35.7±2.8%		full agonists	98.1 ± 6.7	moderate			
CCOc1ccc(CN2CCc3ccccc3C2)cc1CNC(=O)[C@@H](N)Cc1c(C)cc(O)cc1C.O=C(O)C(F)(F)F [Compound 18, (S)-1-((5-((3,4-dihydroisoquinolin-2(1H)-yl)methyl)-2-ethoxybenzyl)amino)-3-(4-hydroxy-2,6-dimethylphenyl)-1-oxopropan-2-aminium trifluoroacetate]	1:10:192			DNS	DNS			did not stimulate DOR and DNS	DNS	full agonists	94.6 ± 3.9				
CCOc1ccc(CNCc2ccccc2)cc1CNC(=O)[C@@H](N)Cc1c(C)cc(O)cc1C.O=C(O)C(F)(F)F [Compound 19, (S)-1-((5-((benzylamino)methyl)-2-ethoxybenzyl)amino)-3-(4-hydroxy-2,6-dimethylphenyl)-1-oxopropan-2-aminium trifluoroacetate]				>20%				26.1±1.7%			77.9 ± 3	high	low double-digit		
CCOc1ccc(CN(C)Cc2ccccc2)cc1CNC(=O)[C@@H](N)Cc1c(C)cc(O)cc1C.O=C(O)C(F)(F)F [Compound 20, (S)-1-((5-((benzyl(methyl)amino)methyl)-2-ethoxybenzyl)amino)-3-(4-hydroxy-2,6-dimethylphenyl)-1-oxopropan-2-aminium trifluoroacetate]	1:4.0:26	1:4.0:26	inactive; also recorded: lacked antinociceptive activity	DNS	DNS			did not stimulate DOR and DNS	DNS		72.2 ± 6.2		low double-digit		
CCOc1ccc(C(=O)N2CCCC2)cc1CNC(=O)[C@@H](N)Cc1c(C)cc(O)cc1C.O=C(O)C(F)(F)F [Compound 21, (S)-1-((2-ethoxy-5-(pyrrolidine-1-carbonyl)benzyl)amino)-3-(4-hydroxy-2,6-dimethylphenyl)-1-oxopropan-2-aminium trifluoroacetate]	1:2.2:>22	1:2.2:>22		DNS	DNS			did not stimulate DOR and DNS	DNS					DNS	DNS
CCOc1ccc(C(=O)N2Cc3ccccc3C2)cc1CNC(=O)[C@@H](N)Cc1c(C)cc(O)cc1C.O=C(O)C(F)(F)F [Compound 22, (S)-1-((2-ethoxy-5-(isoindoline-2-carbonyl)benzyl)amino)-3-(4-hydroxy-2,6-dimethylphenyl)-1-oxopropan-2-aminium trifluoroacetate]	1:20:900			DNS	DNS			did not stimulate DOR and DNS	DNS		27.8 ± 0.7				
